Patent publication US8329707B2, “Substituted pyrazine compounds” (Astellas Pharma Inc., priority 2008, dated 2012)
Structures can show the parent of a compound that is named as a salt.

target: T1, recombinant human hepatic type GK (GST-hGK2) (Homo sapiens, UniProt P35557); assay: Measurement of glucokinase (GK) activation; assay type: biochemical; conditions: 10 min, read-out: GK activation (%)
T1 construct: made in house; host or cells: Escherichia coli BL21
T1 sequence (P35557 1-466 isoform P35557-2): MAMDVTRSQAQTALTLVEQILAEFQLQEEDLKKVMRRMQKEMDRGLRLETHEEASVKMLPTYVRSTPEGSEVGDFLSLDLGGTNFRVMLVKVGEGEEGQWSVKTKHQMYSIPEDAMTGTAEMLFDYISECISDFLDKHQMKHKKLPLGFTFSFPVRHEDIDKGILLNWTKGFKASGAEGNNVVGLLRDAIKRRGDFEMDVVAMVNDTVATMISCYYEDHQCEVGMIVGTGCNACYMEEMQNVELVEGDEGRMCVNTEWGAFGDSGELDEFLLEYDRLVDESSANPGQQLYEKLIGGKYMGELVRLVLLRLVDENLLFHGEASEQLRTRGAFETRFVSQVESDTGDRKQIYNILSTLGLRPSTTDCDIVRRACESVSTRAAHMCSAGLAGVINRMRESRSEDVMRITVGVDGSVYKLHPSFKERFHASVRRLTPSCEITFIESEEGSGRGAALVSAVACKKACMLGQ
Protocol: The present test was carried out in accordance with the method described in Science 301: 370-373, 2003 and with partial modification thereof. Hereinafter, the summary is described.
First, the cloning of GK (GenBank No. AK122876) was carried out. 5′-[…]-3′(SEQ ID NO: 1) and 5′-[…]-3′(SEQ ID NO: 2) were used as primers, and pME18S-FL3-Glucokinase isoform 2 was used as a template to carry out PCR. The obtained reaction product was TA-cloned into a pGEM-T easy vector, digested with EcoRI and XhoI, and introduced to the pGEX-5X-1 vector digested in the same manner by ligation. By using this plasmid DNA (pGEX-human Glucokinase 2), a recombinant human hepatic type GK (GST-hGK2) fused with GST (Glutathione S-transferase) was expressed in Escherichia coli (BL21 strain) and purified by Glutathione Sepharose.
The reaction of GK was carried out at 27° C. on a 96-well plate. First, 1 μL of the test compound (final concentration 10 μM) that has been diluted with dimethylsulfoxide (DMSO) was added to 89 μL of an enzyme mixed liquid (all final concentration 25 mM HEPES pH 7.4, 25 mM KCl, 2 mM MgCl2, 1 mM ATP, 0.1% BSA, 1 mM DTT, 1 mM NADP (nicotinamide adenine dinucleotide phosphate), 2.5 U/ml glucose-6-phosphate dehydrogenase, GST-hGK2 adjusted to ΔODCont of about 0.05 to 0.10). Subsequently, 10 μL of a substrate solution (final concentration 5 mM glucose) was added to start the reaction. In order to quantify a final product NADPH, an absorbance at a wavelength of 340 nm was measured, and the GK activation (%) of the test compound was calculated from the increase of absorbance during the first 10 minutes (ΔOD) after initiation of the reaction. GK activation (%)=[(ΔODTest)−(ΔODCont)]/(ΔODCont)×100
ΔODTest: ΔOD at test compound

SMILES	activation at 10 µM [%]
CC(=O)c1csc(NC(=O)/C(=C/[C@H]2CCC(=O)C2)c2ccc(S(=O)(=O)C3CC3)c(C3CC3)c2)n1 [Example 44]	389
O=C1CCC(/C=C(/C(=O)Nc2cnc(C(O)CO)cn2)c2ccc(S(=O)(=O)C3CC3)c(C3CC3)c2)C1 (centres unmarked) [Example 38]	386

same assay, conditions: 10 min; test compound final concentration 10 μM; 5 mM glucose; 27° C.; increase of absorbance at 340 nm during first 10 minutes vs DMSO; read-out: GK activation (%)

SMILES	activation at 10 µM [%]
O=C1CC[C@H](/C=C(/C(=O)Nc2ccc(C(=O)O)cn2)c2ccc(S(=O)(=O)C3CC3)c(C3CC3)c2)C1 [Example 5, 6-({(2E)-2-[3-cyclopropyl-4-(cyclopropylsulfonyl)phenyl]-3-[(1S)-3-oxocyclopentyl]prop-2-enoyl}amino)nicotinic acid monohydrochloride]	410
Cc1ccc(NC(=O)/C(=C/[C@H]2CCC(=O)C2)c2ccc(S(=O)(=O)C3CC3)c(C3CC3)c2)nc1 [Example 45]	377
O=C1CC[C@H](/C=C(/C(=O)Nc2ncc(F)s2)c2ccc(S(=O)(=O)C3CC3)c(C3CC3)c2)C1 [Example 47]	297
Cc1cnc(NC(=O)/C(=C/C2CCOC2)c2ccc(S(=O)(=O)C3CC3)c(C3CC3)c2)cn1 (centres unmarked) [Example 29]	300
Cn1ccc(NC(=O)[C@H](C[C@H]2CCC(O)C2)c2ccc(S(=O)(=O)C3CC3)c(C3CC3)c2)n1 (some centres unmarked) [Example 85]	257
O=C1CC[C@H](C[C@@H](C(=O)Nc2cnc(Cl)cn2)c2ccc(S(=O)(=O)C3CC3)c(C3CC3)c2)C1 [Example 70]	282
CC(=O)c1csc(NC(=O)[C@H](C[C@H]2CCC(=O)C2)c2ccc(S(=O)(=O)C3CC3)c(C3CC3)c2)n1 [Example 51]	352
Cn1ccc(NC(=O)/C(=C/C2CCOCC2)c2ccc(S(=O)(=O)C3CC3)c(C3CC3)c2)n1 [Example 2, (2E)-2-[3-cyclopropyl-4-(cyclopropylsulfonyl)phenyl]-N-(1-methyl-1H-pyrazol-3-yl)-3-(tetrahydro-2H-pyran-4-yl)acrylamide]	365
Cc1cnc(NC(=O)[C@H](C[C@H]2CCC(=O)C2)c2ccc(S(=O)(=O)C3CC3)c(C3CC3)c2)cn1 [Example 55]	315
COc1cnc(NC(=O)[C@H](C[C@H]2CCC(O)C2)c2ccc(S(=O)(=O)C3CC3)c(C3CC3)c2)cn1 (some centres unmarked) [Example 79]	297
Cc1cnc(NC(=O)/C(=C/[C@@H]2CCC(=O)C2)c2ccc(S(=O)(=O)C3CC3)c(C3CC3)c2)cn1 [Example 34]	245
Cc1cnc(NC(=O)/C(=C/C2CCC(=O)C2)c2ccc(S(=O)(=O)C3CC3)c(C3CC3)c2)cn1 (centres unmarked) [Example 31]	387
Cc1cnc(NC(=O)[C@H](C[C@H]2CCC(O)C2)c2ccc(S(=O)(=O)C3CC3)c(C3CC3)c2)cn1 (some centres unmarked) [Example 78]	273
O=C1CC[C@H](/C=C(/C(=O)Nc2nc(CF)cs2)c2ccc(S(=O)(=O)C3CC3)c(C3CC3)c2)C1 [Example 46]	392
Cn1ccc(NC(=O)/C(=C/C2CCOC2)c2ccc(S(=O)(=O)C3CC3)c(C3CC3)c2)n1 (centres unmarked) [Example 25]	334
O=C(Nc1ncc(Cl)s1)/C(=C/C1CCOC1)c1ccc(S(=O)(=O)C2CC2)c(C2CC2)c1 (centres unmarked) [Example 27]	211
O=C(Nc1ccn(C[C@H](O)CO)n1)/C(=C/C1CCCC1)c1ccc(S(=O)(=O)C2CC2)c(C2CC2)c1 [Example 30]	309
O=C(Nc1ccn(CC(O)CO)n1)/C(=C/C1CCCC1)c1ccc(S(=O)(=O)C2CC2)c(C2CC2)c1 (stereo in doubt) [Example 3, (2E)-3-cyclopentyl-2-[3-cyclopropyl-4-(cyclopropylsulfonyl)phenyl]-N-{1-[(2S)-2,3-dihydroxypropyl]-1H-pyrazol-3-yl}acrylamide]	328
O=C1CC[C@@H](/C=C(/C(=O)Nc2ncc(Cl)s2)c2ccc(S(=O)(=O)C3CC3)c(C3CC3)c2)C1 [Example 35]	265

SMILES	activation at 10 µM [%]
Cc1cnc(NC(=O)/C(=C/C2CCOCC2)c2ccc(S(=O)(=O)C3CC3)c(C3CC3)c2)cn1 [Example 28]	314
CC(C)(O)c1cnc(NC(=O)[C@H](C[C@H]2CCC(=O)C2)c2ccc(S(=O)(=O)C3CC3)c(C3CC3)c2)cn1 [Example 75]	307
O=C(Nc1ccn(CCCO)n1)/C(=C/C1CCCC1)c1ccc(S(=O)(=O)C2CC2)c(C2CC2)c1 [Example 1, (2E)-3-cyclopentyl-2-[3-cyclopropyl-4-(cyclopropylsulfonyl)phenyl]-N-[1-(3-hydroxypropyl)-1H-pyrazol-3-yl]acrylamide]	330
O=C1CCC(/C=C(/C(=O)Nc2ncc(Cl)s2)c2ccc(S(=O)(=O)C3CC3)c(C3CC3)c2)C1 (centres unmarked) [Example 33]	375
Cn1ccc(NC(=O)/C(=C/C2CCCC2)c2ccc(S(=O)(=O)C3CC3)c(C3CC3)c2)n1 [Example 24]	345
O=C1CC[C@H](/C=C(/C(=O)Nc2nc([C@H](O)CO)cs2)c2ccc(S(=O)(=O)C3CC3)c(C3CC3)c2)C1 [Example 43]	391
Cn1ccc(NC(=O)/C(=C/C2CCC(=O)C2)c2ccc(S(=O)(=O)C3CC3)c(C3CC3)c2)n1 (centres unmarked) [Example 32]	410
O=C(Nc1ncc(Cl)s1)/C(=C/C1CCOCC1)c1ccc(S(=O)(=O)C2CC2)c(C2CC2)c1 [Example 26]	231
Cc1cnc(NC(=O)/C(=C/[C@H]2CCC(=O)C2)c2ccc(S(=O)(=O)C3CC3)c(C3CC3)c2)s1 [Example 48]	257
O=C1CC[C@H](/C=C(/C(=O)Nc2nccs2)c2ccc(S(=O)(=O)C3CC3)c(C3CC3)c2)C1 [Example 40]	397
Cn1ccc(NC(=O)/C(=C/[C@@H]2CCC(=O)C2)c2ccc(S(=O)(=O)C3CC3)c(C3CC3)c2)n1 [Example 37]	260
CC(=O)c1cnc(NC(=O)/C(=C/[C@H]2CCC(=O)C2)c2ccc(S(=O)(=O)C3CC3)c(C3CC3)c2)s1 [Example 39]	286
CC(=O)c1cnc(NC(=O)[C@H](C[C@H]2CCC(=O)C2)c2ccc(S(=O)(=O)C3CC3)c(C3CC3)c2)cn1 [Example 74]	337
O=C1CC[C@H](/C=C(/C(=O)Nc2nc3ccc(OCCO)nc3s2)c2ccc(S(=O)(=O)C3CC3)c(C3CC3)c2)C1 [Example 7, (2E)-2-[3-cyclopropyl-4-(cyclopropylsulfonyl)phenyl]-N-[5-(2-hydroxyethoxy)[1,3]thiazolo[5,4-b]pyridin-2-yl]-3-[(1S)-3-oxocyclopentyl]acrylamide]	418
O=C1CC[C@H](/C=C(/C(=O)Nc2ncc(Cl)s2)c2ccc(S(=O)(=O)C3CC3)c(C3CC3)c2)C1 [Example 41]	362
O=C1CCC(/C=C(/C(=O)Nc2cnc(CO)cn2)c2ccc(S(=O)(=O)C3CC3)c(C3CC3)c2)C1 (centres unmarked) [Example 6, (2E)-2-[3-cyclopropyl-4-(cyclopropylsulfonyl)phenyl]-N-[5-(hydroxymethyl)pyrazin-2-yl]-3-(3-oxocyclopentyl)acrylamide]	336
O=C1CC[C@H](C[C@@H](C(=O)Nc2cnc(CCO)cn2)c2ccc(S(=O)(=O)C3CC3)c(C3CC3)c2)C1 [Example 99]	326
Cc1ccc(NC(=O)[C@H](C[C@H]2CCC(O)C2)c2ccc(S(=O)(=O)C3CC3)c(C3CC3)c2)nc1 (some centres unmarked) [Example 81]	211

tested on: ICR mouse; assay: Oral glucose tolerance test in normal mouse; assay type: in vivo; conditions: ICR mouse fasted overnight; 10 mg/kg oral, glucose loading after 30 minutes; AUC lowering rate of blood glucose up to 2 hours after glucose loading vs solvent control
Protocol: The test compound was dissolved in a solvent (5% Cremophor, aqueous 5% DMSO solution), and to an ICR mouse after fasting overnight was orally administered 10 mg/kg of the test compound, and after 30 minutes, oral glucose loading was carried out. Immediately before the administration of the test compound, immediately before the glucose loading, and 0.25, 0.5, 1, and 2 hours after the glucose loading, blood was collected and blood glucose levels were measured. An AUC lowering rate (%) of the blood glucose levels from immediately before the glucose loading to 2 hours after the glucose loading with respect to that of the solvent control group was calculated.

SMILES	inhibition in vivo at 10 mg/kg [%]
O=C1CC[C@H](C[C@@H](C(=O)Nc2cnc(Cl)cn2)c2ccc(S(=O)(=O)C3CC3)c(C3CC3)c2)C1 [Example 70]	60
CC(=O)c1csc(NC(=O)[C@H](C[C@H]2CCC(=O)C2)c2ccc(S(=O)(=O)C3CC3)c(C3CC3)c2)n1 [Example 51]	55
Cc1cnc(NC(=O)[C@H](C[C@H]2CCC(=O)C2)c2ccc(S(=O)(=O)C3CC3)c(C3CC3)c2)cn1 [Example 55]	56
COc1cnc(NC(=O)[C@H](C[C@H]2CCC(O)C2)c2ccc(S(=O)(=O)C3CC3)c(C3CC3)c2)cn1 (some centres unmarked) [Example 79]	45
Cc1cnc(NC(=O)[C@H](C[C@H]2CCC(O)C2)c2ccc(S(=O)(=O)C3CC3)c(C3CC3)c2)cn1 (some centres unmarked) [Example 78]	50
